Results from patent publication US12655116B2, “Substituted isophthalic acid diamides” (Bayer Aktiengesellschaft, priority 2020, dated 2026).

Tests used:
ABUTH = experiment: Pre-emergence herbicidal action against ABUTH; type: in vivo, Abutilon theophrasti; conditions: Abutilon theophrasti, 504 h; for pest or weed control at 80 g/ha: scored visually after 3 weeks vs untreated controls (100% = plants have died, 0% = like control plants); for pest or weed control at 320 g/ha: Dosage: 320 g/ha, scored visually after 3 weeks; for pest or weed control at 320 g/ha / pest or weed control at 20 g/ha: 100% = plants have died, 0% = like control plants; for pest or weed control at 20 g/ha: dosage 20 g/ha, scored visually after 3 weeks vs untreated controls, read-out: Pre-emergence action against ABUTH (herbicidal activity in percent)
Method in brief: (§1)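 Visual rating at 3 weeks vs untreated pots; 0–100% scale, 100% = plants died. Treatment: aqueous WP/EC spray onto covering soil, 600–800 l/ha, 0.2% wetter, seeds in sandy loam.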

ALOMY [1] = experiment: Pre-emergence herbicidal action against ALOMY; type: in vivo, Alopecurus myosuroides; conditions: Alopecurus myosuroides, 504 h, pre-emergence; for pest or weed control at 80 g/ha: scored visually after 3 weeks vs untreated controls (100% = plants have died, 0% = like control plants); for pest or weed control at 320 g/ha: scored visually after 3 weeks, 100% = plants have died, 0% = like control plants
Method in brief: as §1

ECHCG [2] = experiment: Pre-emergence herbicidal action against ECHCG; type: in vivo, Echinochloa crus-galli; conditions: Echinochloa crus-galli, 504 h
Method in brief: as §1

HORMU [3] = experiment: Pre-emergence herbicidal action against HORMU; type: in vivo, Hordeum murinum; conditions: for pest or weed control at 80 g/ha / pest or weed control at 320 g/ha: Hordeum murinum, 504 h, pre-emergence
Method in brief: as §1

LOLRI = experiment: Pre-emergence herbicidal action against LOLRI; type: in vivo, Lolium rigidum; conditions: Lolium rigidum, 504 h
Method in brief: as §1

MATIN [4] = experiment: Pre-emergence herbicidal action against MATIN; type: in vivo, Matricaria inodora; conditions: Tripleurospermum inodorum, 504 h; for pest or weed control at 80 g/ha: dosage 80 g/ha; for pest or weed control at 320 g/ha: dosage 320 g/ha
Method in brief: as §1

SETVI [5] = experiment: Pre-emergence herbicidal action against SETVI; type: in vivo, Setaria viridis; conditions: Setaria viridis, 504 h; for pest or weed control at 80 g/ha: dosage 80 g/ha; for pest or weed control at 320 g/ha: dosage 320 g/ha
Method in brief: as §1

STEME = experiment: Pre-emergence herbicidal action against STEME; type: in vivo, Stellaria media; conditions: Stellaria media, 504 h; for pest or weed control at 80 g/ha: dosage 80 g/ha; for pest or weed control at 320 g/ha: dosage 320 g/ha
Method in brief: as §1

VERPE [6] = experiment: Pre-emergence herbicidal action against VERPE; type: in vivo, Veronica persica; conditions: Veronica persica, 504 h; for pest or weed control at 320 g/ha: dosage 320 g/ha; for pest or weed control at 80 g/ha: dosage 80 g/ha
Method in brief: as §1

VIOTR [7] = experiment: Pre-emergence herbicidal action against VIOTR; type: in vivo, Viola tricolor; conditions: Viola tricolor, 504 h; for pest or weed control at 80 g/ha: dosage 80 g/ha; for pest or weed control at 320 g/ha: dosage 320 g/ha
Method in brief: as §1

ALOMY [8] = experiment: Post-emergence herbicidal action against ALOMY; type: in vivo, Alopecurus myosuroides; conditions: Alopecurus myosuroides, 504 h, visual assessment about 3 weeks after treatment vs untreated controls; for pest or weed control at 80 g/ha: dosage 80 g/ha
Method in brief: (§2)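 Weeds in sandy loam soil received a post-emergence spray at the one-leaf stage. Compounds were applied as WP or EC in water, 600 to 800 l/ha, with 0.2% wetting agent. Activity in % was judged visually after roughly 3 weeks against untreated plants.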

AMARE = experiment: Post-emergence herbicidal action against AMARE; type: in vivo, Amaranthus retroflexus; conditions: Amaranthus retroflexus, 504 h, visual assessment about 3 weeks after treatment, 100% = plants have died, 0% = like control plants
Method in brief: as §2

AVEFA = experiment: Post-emergence herbicidal action against AVEFA; type: in vivo, Avena fatua; conditions: Avena fatua, 504 h, 80 g/ha, visual assessment about 3 weeks after treatment, 100% = plants have died, 0% = like control plants
Method in brief: as §2

ECHCG [9] = experiment: Post-emergence herbicidal action against ECHCG; type: in vivo, Echinochloa crus-galli; conditions: Echinochloa crus-galli, 504 h; for pest or weed control at 80 g/ha: dosage 80 g/ha
Method in brief: as §2

HORMU [10] = experiment: Post-emergence herbicidal action against HORMU; type: in vivo, Hordeum murinum; conditions: Hordeum murinum, 504 h, dosage 80 g/ha
Method in brief: as §2

MATIN [11] = experiment: Post-emergence herbicidal action against MATIN; type: in vivo, Matricaria inodora; conditions: Tripleurospermum inodorum, 504 h; for pest or weed control at 80 g/ha: dosage 80 g/ha
Method in brief: as §2

PHBPU = experiment: Post-emergence herbicidal action against PHBPU; type: in vivo, Pharbitis purpurea; conditions: Ipomoea purpurea, 504 h; for pest or weed control at 80 g/ha: dosage 80 g/ha
Method in brief: as §2

POLCO [12] = experiment: Post-emergence herbicidal action against POLCO; type: in vivo, Polygonum convolvulus; conditions: Fallopia convolvulus, 504 h, dosage 80 g/ha
Method in brief: as §2

SETVI [13] = experiment: Post-emergence herbicidal action against SETVI; type: in vivo, Setaria viridis; conditions: Setaria viridis, 504 h, dosage 80 g/ha
Method in brief: as §2

VERPE [14] = experiment: Post-emergence herbicidal action against VERPE; type: in vivo, Veronica persica; conditions: Veronica persica, 504 h
Method in brief: as §2

VIOTR [15] = experiment: Post-emergence herbicidal action against VIOTR; type: in vivo, Viola tricolor; conditions: Viola tricolor, 504 h
Method in brief: as §2

POLCO [16] = experiment: Pre-emergence herbicidal action against POLCO; type: in vivo, Polygonum convolvulus; conditions: Fallopia convolvulus, 504 h; for pest or weed control at 320 g/ha: dosage 320 g/ha
Method in brief: as §1

SMILES | pest or weed control at 80 g/ha (ABUTH) | pest or weed control at 320 g/ha (ABUTH) | pest or weed control at 80 g/ha (ALOMY [1]) | pest or weed control at 320 g/ha (ALOMY [1]) | pest or weed control at 320 g/ha (ECHCG [2]) | pest or weed control at 80 g/ha (HORMU [3]) | pest or weed control at 320 g/ha (HORMU [3]) | pest or weed control at 80 g/ha (MATIN [4]) | pest or weed control at 320 g/ha (MATIN [4]) | pest or weed control at 320 g/ha (SETVI [5]) | pest or weed control at 80 g/ha (STEME) | pest or weed control at 320 g/ha (STEME) | pest or weed control at 320 g/ha (VERPE [6]) | pest or weed control at 80 g/ha (VIOTR [7]) | pest or weed control at 320 g/ha (VIOTR [7]) | pest or weed control at 80 g/ha (ALOMY [8]) | pest or weed control at 20 g/ha (AMARE) | pest or weed control at 80 g/ha (AMARE) | pest or weed control at 80 g/ha (AVEFA) | pest or weed control at 80 g/ha (ECHCG [9]) | also measured
CNC(=O)c1c(C(F)(F)F)ccc(C(=O)Nc2nnnn2C)c1SC [Example 1-81] | 100% | 100% | 80% | 100% | 100% | 80% | 100% | 100% | 100% | 100% | 100% | 100% | 100% | 90% | 100% | 90% | 90% | 90% | 90% | 90% | pest or weed control at 80 g/ha (ECHCG [2]): 100%; pest or weed control at 320 g/ha (LOLRI): 80%; pest or weed control at 80 g/ha (SETVI [5]): 100%; pest or weed control at 20 g/ha (ALOMY [8]; dosage 20 g/ha): 80%; pest or weed control at 20 g/ha (ECHCG [9]; dosage 20 g/ha): 80%; pest or weed control at 80 g/ha (HORMU [10]): 80%; pest or weed control at 20 g/ha (MATIN [11]; dosage 20 g/ha): 80%; pest or weed control at 80 g/ha (MATIN [11]): 100%; pest or weed control at 80 g/ha (PHBPU): 80%; pest or weed control at 80 g/ha (POLCO [12]): 90%; pest or weed control at 80 g/ha (SETVI [13]): 90%; pest or weed control at 20 g/ha (VERPE [14]): 80%; pest or weed control at 80 g/ha (VERPE [14]): 90%; pest or weed control at 80 g/ha (VIOTR [15]): 80%
CCn1nnnc1NC(=O)c1ccc(C(F)(F)F)c(C(=O)NC(C)=O)c1Cl [Example 2-337] | 100% | 100% | 90% | 100% | 100% | 90% | 100% | 100% | 100% | 100% | 90% | 100% | 90% | 100% | 100% | 90% | 100% | 100% | 90% | 90% | pest or weed control at 20 g/ha (ABUTH): 100%; pest or weed control at 20 g/ha (ECHCG [2]; 20 g/ha): 80%; pest or weed control at 80 g/ha (ECHCG [2]): 100%; Pre-emergence action against HORMU (HORMU [3]; 20 g/ha, scored visually after 3 weeks, 100% = plants have died, 0% = like control plants): 90%; pest or weed control at 80 g/ha (LOLRI; 80 g/ha): 80%; pest or weed control at 320 g/ha (LOLRI): 90%; pest or weed control at 20 g/ha (MATIN [4]; dosage 20 g/ha): 80%; pest or weed control at 320 g/ha (POLCO [16]): 80%; pest or weed control at 20 g/ha (SETVI [5]; dosage 20 g/ha): 90%; pest or weed control at 80 g/ha (SETVI [5]): 100%; pest or weed control at 20 g/ha (STEME; dosage 20 g/ha): 90%; pest or weed control at 20 g/ha (VERPE [6]; dosage 20 g/ha): 80%; pest or weed control at 80 g/ha (VERPE [6]): 90%; pest or weed control at 20 g/ha (VIOTR [7]; dosage 20 g/ha): 90%; pest or weed control at 80 g/ha (PHBPU): 80%; pest or weed control at 5 g/ha (VERPE [14]; 5 g/ha): 80%; pest or weed control at 20 g/ha (VERPE [14]): 100%; pest or weed control at 80 g/ha (VERPE [14]): 100%; pest or weed control at 80 g/ha (VIOTR [15]): 90%
CCCn1nnnc1NC(=O)c1ccc(C(F)(F)F)c(C(N)=O)c1Cl [Example 3-338] | 100% | 100% | 80% | 100% | 100% | 80% | 100% | 90% | 100% | 100% | 90% | 100% | 100% | 90% | 100% | 100% | 90% | 100% | 100% | 80% | pest or weed control at 20 g/ha (ABUTH): 90%; pest or weed control at 80 g/ha (POLCO [16]; dosage 80 g/ha): 80%; pest or weed control at 320 g/ha (POLCO [16]): 80%; pest or weed control at 80 g/ha (VERPE [6]): 90%; pest or weed control at 80 g/ha (HORMU [10]): 100%; pest or weed control at 80 g/ha (MATIN [11]): 80%; pest or weed control at 20 g/ha (PHBPU; dosage 20 g/ha): 80%; pest or weed control at 80 g/ha (PHBPU): 90%; pest or weed control at 80 g/ha (SETVI [13]): 90%; pest or weed control at 20 g/ha (VERPE [14]): 90%; pest or weed control at 80 g/ha (VERPE [14]): 90%; pest or weed control at 20 g/ha (VIOTR [15]; 20 g/ha): 90%; pest or weed control at 80 g/ha (VIOTR [15]): 100%
